Source: patent publication US20250099491A1, “PREVENTION OR TREATMENT OF CARDIOVASCULAR DISEASES WITH HIGH PENETRATION PRODRUGS OF ASPIRIN AND OTHER NSAIDS” (Techfields Inc., priority 2022, published 2025)
Like-named read-outs stand apart in the source and are kept apart here.

How the values were obtained:
[1] = rabbit
[2] = system: rats with acute ischemia induced by Middle Cerebral Artery Occlusion (MCAO); test: Example 18: acute ischemia induced by MCAO in rats; type: in vivo, rat; details: for infarct volume: Day 14 after MCAO, TTC staining, mean±SEM
[3] = system: rats with acute ischemia induced by Middle Cerebral Artery Occlusion (MCAO); test: Example 17: acute ischemia induced by MCAO in rats; type: in vivo, rat
[4] = system: rats with acute ischemia induced by Middle Cerebral Artery Occlusion (MCAO); test: Example 15: acute ischemia induced by MCAO in rats; type: in vivo, rat; details: for infarct volume: Day 14 after MCAO, TTC staining, mean±SEM
[5] = system: rats with acute ischemia induced by Middle Cerebral Artery Occlusion (MCAO); test: Example 16: acute ischemia induced by MCAO in rats; type: in vivo, rat; details: for mortalities: deaths of animals in group; for infarct volume: Day 14 after MCAO, TTC staining, mean±SEM
[6] = high dose 60 mg/kg topical bid 14 days
[7] = high dose group compared to vehicle group
[8] = high dose groups vs vehicle group
[9] = low dose 15 mg/kg topical bid 14 days
[10] = low, middle and high dose groups, Day 5-14, vs vehicle group by t-test
[11] = middle dose 30 mg/kg topical bid 14 days
[12] = comparators: oral 60 mg/kg bid, Edaravone 3 mg/kg i.v. q.d.

Compound | The cumulative amount of test compounds ([1]; 1 h) [mg] | The cumulative amount of test compounds ([1]; 2 h) [mg] | The cumulative amount of test compounds ([1]; 4 h) [mg] | The cumulative amount of test compounds ([1]; 8 h) [mg] | also measured
CC(=O)Oc1ccccc1C(=O)Oc1ccccc1C(=O)OCC1CCCN1.Cl (centres unmarked) [Compound-14, (pyrrolidin-2-yl)methyl 2-(2-acetoxybenzoyl)oxybenzoate hydrochloride] | 0.37 | 0.84 | 1.82 | 3.69 | infarct volume [2, 6]: 32.98%±2.546; mortalities ([2]; high dose 60 mg/kg topical bid, deaths of animals in group): 0 of 25; neuroprotective effect on brain ischemic injury [2, 7]: good neuroprotective effect; neurological deficit scores [2, 8]: show differences significantly; infarct volume [2, 9]: 36.87%±2.265; body weight [2, 10]: increased; infarct volume [2, 11]: 35.39%±2.479
CC(=O)Oc1ccc(-c2ccc(F)cc2F)cc1C(=O)O [Compound-9, 2′,4′-difluoro-4-acetoxy-[1,1′-biphenyl]-3-carboxylic acid, reference compound] | 0.000 | 0.000 | 0.001 | 0.002 | infarct volume ([3]; 60 mg/kg oral bid 14 days, Day 14 after MCAO, TTC staining, mean±SEM): 38.95%±2.176; reduction of infarct volumes [3, 12]: little reduction
CCN(CC)CCOC(=O)c1ccccc1OC(=O)c1ccccc1OC(C)=O.Cl [Compound-13, 2-(diethylamino)ethyl 2-(2-acetoxybenzoyl)oxybenzoate hydrochloride] | 0.46 | 0.97 | 1.99 | 3.89 | –
Cl.O=C(OCC1CCCN1)c1cc(-c2ccc(F)cc2F)ccc1O (centres unmarked) [Compound-11, (pyrrolidin-2-yl)methyl 2′,4′-difluoro-4-hydroxyl-[1,1′-biphenyl]-3-carboxylate hydrochloride] | 0.43 | 0.99 | 2.01 | 4.05 | –
CC(=O)Oc1ccccc1C(=O)Oc1ccccc1C(=O)O [Compound-15, 2-(2-acetoxybenzoyl)oxybenzoic acid, reference compound] | 0.000 | 0.000 | 0.001 | 0.001 | infarct volume ([2]; 60 mg/kg oral bid 14 days): 39.25%±2.981; reduction of infarct volumes [2, 12]: little reduction
O=C(Oc1ccccc1C(=O)O)c1ccccc1O [Compound-18, 2-(2-hydroxybenzoyl)oxybenzoic acid, reference compound] | 0.000 | 0.000 | 0.001 | 0.001 | –
CCN(CC)CCOC(=O)c1cc(-c2ccc(F)cc2F)ccc1OC(C)=O.Cl [Compound-7, 2-(diethylamino)ethyl 2′,4′-difluoro-4-acetoxy-[1,1′-biphenyl]-3-carboxylate hydrochloride] | 0.53 | 1.07 | 2.16 | 4.33 | –
O=C(O)c1ccccc1O [Compound-6, Salicylic acid, reference compound] | 0.000 | 0.001 | 0.002 | 0.002 | infarct volume ([4]; 60 mg/kg oral bid 14 days): 37.47%±2.856; reduction of infarct volumes [4, 12]: little reduction
CCN(CC)CCOC(=O)c1ccccc1OC(=O)c1ccccc1O.Cl [Compound-16, 2-(diethylamino)ethyl 2-(2-hydroxybenzoyl)oxybenzoate hydrochloride] | 0.37 | 0.87 | 1.71 | 3.56 | –
CCN(CC)CCOC(=O)c1cc(-c2ccc(F)cc2F)ccc1O.Cl [Compound-10, 2-(diethylamino)ethyl 2′,4′-difluoro-4-hydroxyl-[1,1′-biphenyl]-3-carboxylate hydrochloride] | 0.49 | 1.03 | 2.12 | 4.39 | –
O=C(O)c1cc(-c2ccc(F)cc2F)ccc1O [Compound-12, 2′,4′-difluoro-4-hydroxyl-[1,1′-biphenyl]-3-carboxylic acid, reference compound] | 0.000 | 0.001 | 0.001 | 0.003 | –
Cl.O=C(Oc1ccccc1C(=O)OCC1CCCN1)c1ccccc1O (centres unmarked) [Compound-17, (pyrrolidin-2-yl)methyl 2-(2-hydroxybenzoyl)oxybenzoate hydrochloride] | 0.32 | 0.68 | 1.39 | 2.97 | –
CCN(CC)CCOC(=O)c1ccccc1O.Cl [Compound-4, 2-(diethylamino)ethyl hydroxybenzoate hydrochloride] | – | – | – | – | infarct volume [4, 6]: 34.56%±2.563; neuroprotective effect on brain ischemic injury [4, 7]: good neuroprotective effect; neurological deficit scores [4, 8]: show differences significantly; infarct volume [4, 9]: 37.01%±2.053; body weight [4, 10]: increased; infarct volume [4, 11]: 35.77%±1.875
(pyrrolidin-2-yl)methyl acetoxybenzoate hydrochloride [Compound-2] | – | – | – | – | mortalities ([5]; high dose 60 mg/kg topical bid): 0 of 25; infarct volume [5, 9]: 33.11%±2.212; neuroprotective effect on brain ischemic injury ([5]; low, middle and high dose groups compared to vehicle group): good neuroprotective effect; neurological deficit scores ([5]; low, middle and high dose groups vs vehicle group): show differences significantly; body weight [5, 10]: increased; infarct volume [5, 11]: 27.03%±2.123; mortalities ([5]; middle dose 30 mg/kg topical bid): 0 of 25
